Measurements from publication PMC3114813 (Environmental Health Perspectives, 2011).
Residue numbers refer to the chain shown, from its start.

Tests used:
yeast = test: YAS, cytotoxicity (turbidity at 620 nm); type: cell-based; details: for Cytotoxic EC20 (μM) YAS: EC20 = concentration that produces a 20% effect, yeast turbidity
Description: (§1) The methods for the YAS have been described previously ([Sohoni and Sumpter 1998]). Briefly, stimulation of the transfected AR causes a color change in the media, which is measured by absorbance at 540 nm (Labsystems Multiskan Multisoft, Vienna, VA, USA). Plates were also measured at 620 nm to measure cell growth (turbidity) to check for any cytotoxic effects that may have occurred. Pesticides were coincubated with DHT (6.4 nM). […] Incubation time was 53 hr at 28°C. […] Pesticide serial dilutions were tested in duplicate over two plates and were tested in two separate experiments.

androgen receptor (AR) [1] = target: T1, androgen receptor (AR) (Homo sapiens, UniProt P10275, Q868H); type: cell-based; details: androgenic in the absence of DHT; Neg = no response was observed
T1 construct: MDA-kb2 cells are human breast cancer cells stably transfected with a firefly luciferase reporter gene; endogenous in cells; host or cells: MDA-kb2 (human breast cancer cells)
T1 sequence (P10275 1-920 Q868H): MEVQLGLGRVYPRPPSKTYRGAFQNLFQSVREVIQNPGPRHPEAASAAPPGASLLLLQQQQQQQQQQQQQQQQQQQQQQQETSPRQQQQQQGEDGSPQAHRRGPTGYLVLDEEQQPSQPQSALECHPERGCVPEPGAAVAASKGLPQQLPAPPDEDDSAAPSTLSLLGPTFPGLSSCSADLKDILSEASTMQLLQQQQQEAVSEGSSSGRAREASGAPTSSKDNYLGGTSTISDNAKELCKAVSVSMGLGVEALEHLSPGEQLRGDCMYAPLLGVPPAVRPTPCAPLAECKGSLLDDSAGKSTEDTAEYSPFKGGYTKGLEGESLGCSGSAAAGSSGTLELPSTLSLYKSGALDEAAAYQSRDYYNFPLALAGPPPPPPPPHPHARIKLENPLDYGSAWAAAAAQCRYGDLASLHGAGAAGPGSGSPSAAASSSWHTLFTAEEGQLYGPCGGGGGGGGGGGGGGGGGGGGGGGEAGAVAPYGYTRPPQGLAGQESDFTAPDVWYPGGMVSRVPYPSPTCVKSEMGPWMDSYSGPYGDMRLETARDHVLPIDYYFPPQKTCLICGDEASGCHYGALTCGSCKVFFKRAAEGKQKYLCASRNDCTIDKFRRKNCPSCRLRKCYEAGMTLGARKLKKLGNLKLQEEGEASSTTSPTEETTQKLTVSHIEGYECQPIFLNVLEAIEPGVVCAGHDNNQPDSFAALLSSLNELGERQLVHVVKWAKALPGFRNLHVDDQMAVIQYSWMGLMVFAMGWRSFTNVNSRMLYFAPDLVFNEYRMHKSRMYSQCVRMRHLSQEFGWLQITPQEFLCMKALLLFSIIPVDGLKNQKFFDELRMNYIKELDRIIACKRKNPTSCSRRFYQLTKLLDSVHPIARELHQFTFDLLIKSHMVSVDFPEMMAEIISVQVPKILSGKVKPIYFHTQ
Description: (§2) MDA-kb2 cells are human breast cancer cells stably transfected with a firefly luciferase reporter gene that is driven by an androgen-response element–containing promoter ([Wilson et al. 2002]). Details of the modified assay were published previously ([Ermler et al. 2010]). Briefly, cells were seeded at a concentration of 1 × 10^5 cells/mL in phenol red–free Leibowitz-15 medium (Invitrogen Ltd., Paisley, UK) containing 10% (charcoal-stripped) fetal calf serum (Invitrogen Ltd.) in white luminometer plates and allowed to attach for 24 hr. Cells were then exposed to eight serial dilutions of selected pesticides with or without DHT (0.25 nM). After 24 hr, luciferase activity was determined with SteadyGlo assay reagent (Promega UK Ltd., Southampton, Hampshire, UK) and measured in a plate reader (FLUOstar Optima, BMG Labtech GmbH, Offenburg, Germany). […] All concentrations were tested in duplicate over two plates, and each pesticide was measured at least twice in separate experiments. For comparative purposes, luminescence was normalized to DHT alone at coexposure concentration (maximum response, 100%) and solvent-only (ethanol) controls (minimum response, 0%). […] Pesticides were initially tested over a concentration range of 0.64 nM–50 μM (5× dilutions) as a range-finding exercise. Subsequently, the concentration ranges were modified to reflect the potency and toxicity of each individual compound. […] Sixty percent of the pesticides were repeat tested using the same product but with new stock solutions and by a different experimenter.
(§3) To analyze antiandrogenic action, raw luminescence readings were normalized on a plate-by-plate basis to the means of the positive DHT controls (n = 8) and the solvent controls (n = 8) ([Ermler et al. 2010]). […] Specifically, a variety of nonlinear regression models were fitted independently to the same data set, and the best-fitting model was selected using a statistical goodness-of-fit criterion. […] Data considered to be statistically significant at p < 0.05 were analyzed using the best-fit approach as described above. All statistical analysis was performed using SAS statistical software (SAS Institute Inc., Cary, NC, USA). From the best-fitting model, we derived inhibitory concentrations for antiandrogenicity and effect concentrations for cytotoxicity.

MDA-kb2 cells = details: for Cytotoxic EC20 (μM) MDA-kb2: EC20 = concentration that produces a 20% effect
Description: as §2, §3

androgen receptor (AR) [2] = target: T1, androgen receptor (AR); test: cell-based; details: for IC20: MDA-kb2, read-out: Antiandrogen IC20 (μM) MDA-kb2; for Antiandrogenic activity in the MDA-kb2 assay (in words): MDA-kb2 / 'our assay'; for ERR (environmental relevance ratio): total exposure score / IC20 (MDA-kb2), recalculated using experimental data
Description: as §2, §3

androgen receptor (AR) [3] = target: T2, androgen receptor (AR) (Homo sapiens, UniProt P10275); test: cell-based; type: cell-based; details: for IC20: coincubated with DHT 6.4 nM, 53 hr at 28°C, Neg = no response was observed, read-out: Antiandrogen IC20 (μM) YAS
T2 construct: expressed in transfected cells; host or cells: yeast (YAS strain)
T2 sequence (P10275 1-920): T1 sequence (P10275 1-920 Q868H) with H868Q
Description: as §1, with “Briefly,” for “The methods for the YAS have been described previously ([Sohoni and Sumpter 1998]). Briefly,”, “occurred.” for “occurred. Pesticides were coincubated with DHT (6.4 nM).”
Specifically, a variety of nonlinear regression models were fitted independently to the same data set, and the best-fitting model was selected using a statistical goodness-of-fit criterion. […] Data considered to be statistically significant at p < 0.05 were analyzed using the best-fit approach as described above. All statistical analysis was performed using SAS statistical software (SAS Institute Inc., Cary, NC, USA). From the best-fitting model, we derived inhibitory concentrations for antiandrogenicity and effect concentrations for cytotoxicity.

[4] = cited from earlier work; for Parent compound remaining on food commodities: stable on food commodities, ref EFSA 2007, 2010a, 2010b
aromatase = tested on: aromatase; parameters: method as in Vinggaard et al. 2000; details: human placental microsomes; ref Vinggaard et al. 2000; cited from earlier work
[5] = parameters: method as in Lambright et al. 2000; Taxvig et al. 2007; details: ref Lambright et al. 2000; Taxvig et al. 2007; cited from earlier work
adult male rats = details: 90 days, ref Ngoula et al. 2007, cited from earlier work
rats = details: 12 mg/kg body weight/day, ref EFSA 2005; cited from earlier work

## COc1ccc(C(=CC(=O)N2CCOCC2)c2ccc(Cl)cc2)cc1OC [Dimethomorph]
yeast
  Cytotoxic EC20 (μM) YAS: > 50 µM
Androgen receptor (AR) [1]
  Androgen EC20 (μM) MDA-kb2: Neg
MDA-kb2 cells
  Cytotoxic EC20 (μM) MDA-kb2: > 25 µM
Androgen receptor (AR) [2]
  IC20: 0.263 µM
  Antiandrogenic activity in the MDA-kb2 assay (in words): antiandrogenic
  ERR (environmental relevance ratio): 45.6
Androgen receptor (AR) [3]
  IC20: 38.5 µM
[4]
  Parent compound remaining on food commodities: > 70%

## CCOc1ccc2c(c1)C(C)=CC(C)(C)N2 [Ethoxyquin]
yeast
  Cytotoxic EC20 (μM) YAS: > 200 µM
Androgen receptor (AR) [1]
  Androgen EC20 (μM) MDA-kb2: Neg
MDA-kb2 cells
  Cytotoxic EC20 (μM) MDA-kb2: > 50 µM
Androgen receptor (AR) [2]
  IC20: 10.7 µM
  Antiandrogenic activity in the MDA-kb2 assay (in words): in vitro AR antagonists
  ERR (environmental relevance ratio): 0.75
Androgen receptor (AR) [3]
  IC20: 11.1 µM

## CC1(C(=O)Nc2ccc(O)c(Cl)c2Cl)CCCCC1 [Fenhexamid]
MDA-kb2 cells
  Cytotoxic EC20 (μM) MDA-kb2: 21.6 µM
[4]
  Parent compound remaining on food commodities: > 70%

## N#Cc1c[nH]cc1-c1cccc2c1OC(F)(F)O2 [Fludioxonil]
yeast
  Cytotoxic EC20 (μM) YAS: > 160 µM
MDA-kb2 cells
  Cytotoxic EC20 (μM) MDA-kb2: 28.5 µM
[4]
  Parent compound remaining on food commodities: > 70%

## C=CCOC(Cn1ccnc1)c1ccc(Cl)cc1Cl (centres unmarked) [Imazalil]
MDA-kb2 cells
  Cytotoxic EC20 (μM) MDA-kb2: 19.0 µM
aromatase
  Aromatase inhibition: inhibited aromatase

## CON(C)C(=O)Nc1ccc(Cl)c(Cl)c1 [Linuron]
MDA-kb2 cells
  Cytotoxic EC20 (μM) MDA-kb2: > 50 µM
[5]
  In vivo antiandrogen (in words): known in vivo antiandrogens

## CCN(CC)c1nc(C)cc(OP(=S)(OC)OC)n1 [Pirimiphos-methyl]
yeast
  Cytotoxic EC20 (μM) YAS: > 200 µM
Adult male rats; 125 mg/kg body weight/day
  Fertility: decreased fertility
  Sperm density and mobility: decreased sperm density and mobility
Adult male rats
  Testicular atrophy, lowest observed adverse effect level: 41.67 mg/kg body weight/day
MDA-kb2 cells
  Cytotoxic EC20 (μM) MDA-kb2: > 50 µM
rats
  Testicular effect of maternal and postnatal exposure: testicular tubular atrophy
[4]; stored grain, < 24 weeks, ref EFSA 2005
  Unchanged parent compound on stored grain: 70%

## CCCN(CCOc1c(Cl)cc(Cl)cc1Cl)C(=O)n1ccnc1 [Prochloraz]
MDA-kb2 cells
  Cytotoxic EC20 (μM) MDA-kb2: 12.5 µM
aromatase
  Aromatase inhibition: inhibited aromatase

## CC12CC1(C)C(=O)N(c1cc(Cl)cc(Cl)c1)C2=O (centres unmarked) [Procymidone, reference compound]
yeast
  Cytotoxic EC20 (μM) YAS: > 160 µM
Androgen receptor (AR) [1]
  Androgen EC20 (μM) MDA-kb2: Neg
MDA-kb2 cells
  Cytotoxicity in the MDA-kb2 assay (in words): nontoxic
  Cytotoxic EC20 (μM) MDA-kb2: > 50 µM
Androgen receptor (AR) [2]; MDA-kb2, internal quality control for antiandrogenicity
  IC50: 0.53 µM
Androgen receptor (AR) [2]
  IC20: 0.163 µM
  Antiandrogenic activity in the MDA-kb2 assay (in words): in vitro AR antagonists
  ERR (environmental relevance ratio): 202.5
Androgen receptor (AR) [3]
  IC20: 0.956 µM

## CC(C)(C)C(O)(CCc1ccc(Cl)cc1)Cn1cncn1 (centres unmarked) [Tebuconazole]
MDA-kb2 cells
  Cytotoxic EC20 (μM) MDA-kb2: 38.9 µM
[5]
  In vivo antiandrogen (in words): known in vivo antiandrogens

## Cc1ccc(N(SC(F)(Cl)Cl)S(=O)(=O)N(C)C)cc1 [Tolylfluanid]
yeast
  Cytotoxic EC20 (μM) YAS: 1.14 µM
yeast; YAS
  Cytotoxicity in the YAS assay (in words): cytotoxic
Androgen receptor (AR) [1]
  Androgen EC20 (μM) MDA-kb2: Neg
MDA-kb2 cells
  Cytotoxicity in the MDA-kb2 assay (in words): cytotoxic
  Cytotoxic EC20 (μM) MDA-kb2: 8.09 µM
Androgen receptor (AR) [2]
  Antiandrogen IC20 (μM) MDA-kb2: Neg
  Antiandrogenic activity in the MDA-kb2 assay (in words): lacked activity
Androgen receptor (AR) [3]; YAS
  Antiandrogenic activity in the YAS (in words): antiandrogenic
Androgen receptor (AR) [3]
  IC20: 0.234 µM

## CCCC1COC(Cn2cncn2)(c2ccc(Cl)cc2Cl)O1 (centres unmarked) [propiconazole]
aromatase
  Aromatase inhibition: inhibited aromatase

## CC(C)(C)C(=O)C(Oc1ccc(Cl)cc1)n1cncn1 (centres unmarked) [triadimefon]
aromatase
  Aromatase inhibition: inhibited aromatase

## CC(C)(C)C(O)C(Oc1ccc(Cl)cc1)n1cncn1 (centres unmarked) [triadimenol]
aromatase
  Aromatase inhibition: inhibited aromatase
